In article PMC4024065, “Optimization of an Imidazopyridazine Series of Inhibitors of Plasmodium falciparum Calcium-Dependent Protein Kinase 1 (PfCDPK1)” (Journal of Medicinal Chemistry, 2014):
Read-outs that look alike come from different tables or passages of the source.

Columns and labels:
[1] = Figure 1 summary data; cited from earlier work
[2] = Figure 1 summary data; cited from earlier work; remark: listed apart in the source
Pharmacokinetics in rats = assay type: in vivo; details: rat, hydrochloride salt

For `CC(C)CCNc1ccc(-c2cnc3ccc(NC4CCN(C)CC4)nn23)cn1` [Compound 1], the “MLM % rem at 30 min” value [1] is listed as 63% and the “HLM % rem at 40 min” value [2] is listed as 85%.

Compound `CN1CCC(Nc2ccc3ncc(-c4ccc(Nc5ncccc5F)cc4)n3n2)CC1` [Compound 35, 3-{4-[(3-Fluoropyridin-2-yl)amino]phenyl}-N-(1-methylpiperidin-4-yl)imidazo[1,2-b]pyridazin-6-amine] has a Vd (Pharmacokinetics in rats; in vivo, iv 4.5 mg/kg) of 8 L/kg, a half-life (Pharmacokinetics in rats; in vivo, iv 4.5 mg/kg, read-out: iv t1/2 (converted)) of 4 h and a clearance (Pharmacokinetics in rats; plasma, iv 4.5 mg/kg, read-out: plasma Cl) of 28 mL/min/kg. For the same compound, the “oral BA” value (Pharmacokinetics in rats; po 21 mg/kg, iv […]) was 70% and the clearance (Pharmacokinetics in rats; whole blood, iv 4.5 mg/kg, read-out: blood Cl) was 14 mL/min/kg.
